Values after ≈ are worked out from the molar mass of the structure shown. Read-outs that look alike come from different tables or passages of the source.
Key:
Assay type in all cases: cell-based
Acinetobacter baumannii [1] = assay: MIC in RPMI1640 media (Table 2)
Procedure: (§1) […] […] Tests were performed in triplicate. MIC of iron chelators were determined for noscomial ESKAPE pathogens.
(§2) This media is closer to the iron levels in the human body. MICs are in ug/mL.

E. coli [2] = assay: MIC in RPMI1640 media (Table 2)
Procedure: as §1, §2

P. aeruginosa [3] = assay: MIC in RPMI1640 media (Table 2); settings: Pseudomonas aeruginosa
Procedure: as §1, §2

K. pneumonia [4] = assay: MIC in RPMI1640 media (Table 2); settings: Klebsiella pneumoniae
Procedure: as §1, §2

Acinetobacter baumannii [5] = assay: MIC, CLSI microdilution (Tables 1 and 6)
Procedure: (§3) The minimal inhibitory concentration (MIC) of non-toxic iron chelators was determined against standard strains of MDR bacteria and clinical isolates according to the guidelines of the Clinical and Laboratory Standards Institute (CLSI).
(§4) Individual MICs were determined following the microdilution method recommended by CLSI in cationic-adjusted Mueller-Hinton Broth (CAMHB), or M9 media. […] Tests were performed in triplicate. MIC of iron chelators were determined for noscomial ESKAPE pathogens.
(§5) MIC were determined in CAMHB media as described above in Example 8.

S. aureus = assay: MIC, CLSI microdilution (Tables 1 and 6); settings: Staphylococcus aureus
Procedure: as §3, §4, §5

E. coli [6] = assay: MIC, CLSI microdilution (Tables 1 and 6)
Procedure: as §3, §4, §5

P. aeruginosa [7] = assay: MIC, CLSI microdilution (Tables 1 and 6); settings: Pseudomonas aeruginosa
Procedure: as §3, §4, §5

K. pneumonia [8] = assay: MIC, CLSI microdilution (Tables 1 and 6); settings: Klebsiella pneumoniae
Procedure: as §3, §4, §5

[9] = system: Acinetobacter baumannii strain 5711 (AB5711); assay: Growth (OD600) of AB5711 in low iron media with chelators, with or without FeCl3; settings: AB5711; low iron media; 100 μM or 200 μM chelator added after 4 hr; 24 hr
Procedure: Acinetobacter baumannii strain 5711 (AB5711) was grown overnight in LB media and sub-cultured into low iron media. The tested iron chelators were deferoxamine (DFO), deferiprone (DFP), 2,2-dipyridyl, and VK28. The iron chelators were added after 4 hr of growth.
Bacterial growth was estimated by absorption at OD600 every 4 hr for 24 hr. Optical density (OD) at 600 nm (OD600) as measured by a spectrophotometer is a widely used technique known by one skilled in the art to estimate the total number of bacterial cells present in a broth culture (CFU/ml). The exact amount of OD produced by a culture will depend on the concentration of cells present, the species and strain of microbe present, the growth conditions used, and the wavelength of the light being transmitted. Thus, the relationship between OD and cell concentrations will depend on the specific strain and growth conditions studied. For example, the OD600 of 1 for E. coli is about 1×10^9 CFU/ml.
This example provides further evidence that the removal of iron is responsible for bacterial growth inhibition. A. baumannii isolate 5711 was grown in low iron M9 media supplemented with 0 μM, 10 μM, or 100 μM FeCl3 with and without the addition of 200 μM VK28 following 4 hr of growth. Growth was estimated by absorbance at 600 nm every 4 hr for 24 hr.
This example provides further evidence that the removal of iron is responsible for bacterial growth inhibition. A. baumannii isolate 5711 was grown in low iron M9 media supplemented with 0 μM, 10 μM, 100 μM, or 1000 μM FeCl3 with and without the addition of 50 μg/ml of VK28 following 4 hr of growth. Growth was estimated by absorbance at 600 nm after 20 hours.

E. coli strain EC35218 = assay: Growth (OD600) with chelator, Rifampin or both; settings: CAMHB
Procedure: E. coli strain EC35218 was grown in CAMHB and challenged with 1.5×MIC compound 4 (Var) or 1.5×MIC Triapine (Tri) with or without 0.75×MIC Rifampin (Rif). Growth was estimated by absorbance at 600 nm (y-axis) at 0 or 24 hours.

[10] = system: AB5075, a stain of A. baumannii (Ab); assay: Development of rifampin resistance over 7 days (OD600); settings: rifampin alone
Procedure: Development of antibiotic-resistant strains is an ongoing problem in the treatment of bacterial infections. In some embodiments, the present technology provides methods and compositions for reducing, inhibiting or preventing formation of antibiotic-resistant bacterial strains. In some embodiments, the iron chelator of the present technology is administered to a patient as a prophylactic before antibiotic treatment or during antibiotic treatment. In some embodiments, the iron chelator is added concurrently with an antibiotic.
Cultures of AB5075, a stain of A. baumannii (Ab), was cultured in the presence of Rifampin alone, the iron chelator ApoL1 alone or Rifampin combination with ApoL1 for 7 days.

E. coli EC35218 = assay: Time-kill assay in CAMHB; settings: ¾MIC Rifampicin alone; CAMHB
Procedure: Reductions in colony forming units (CFU)/mL were determined over time (time-kill assay) after exposure to VK28 and deferiprone (DFP), the two iron chelators that performed best in MIC assays when compared to controls. To better represent the iron content found in the human body, MIC and time-kill assays were also determined in minimal media and tissue culture media. Time-Kill assays were performed as previously described in G. P. Neupane et al., “In vitro time-kill activities of ciprofloxacin alone and in combination with the iron chelator deferasirox against Vibrio vulnificus,” European Journal of Clinical Microbiology and Infectious Diseases, 407-410 (2010); and R. L. White, et al., “Comparison of Three Different In Vitro Methods of Detecting synergy: Time-Kill, Checkerboard, and E test,” Journal of Antimicrobial Agents and Chemotherapy, 1914-1918 (1996). Initial inocula, for example 1×10^6 CFU/mL or 1×10^7 CFU/mL were challenged with iron chelator with and/or without an antibiotic. Cells were allowed to grow in CAMHB at 37° C. for 24 hours. Time-kill results were analyzed by determining the change in log 10 numbers of CFU/ml at 0, 6, and 24 h, compared to counts at 0 h. Antimicrobials were considered bactericidal at the lowest concentration that reduced the size of the original inoculum by >3 log 10 CFU/ml (99.9%) over each of the time periods and were considered bacteriostatic if the inoculum's size was reduced by 0 to <3 log 10 CFU/ml.
In this example, time-kill assays were performed as described in Example 9 against different multi-drug resistant bacteria, namely E. coli and MRSA.
In this example, time-kill assays were performed as described in Example 9 using ApoL1 as the iron chelator against two different E. coli strains. […] Time-kill results were analyzed by determining the change in log 10 numbers of CFU/mL at 6 and 24 hours.
In this example, time-kill assays were performed as described in Example 9 using Apo6619 as the iron chelator in combination with Rifampin against E. coli 35718. […] Time-kill results were analyzed by determining the change in log 10 numbers of CFU/mL at 0, 5 and 24 hours.

[11] = system: A. baumannii strain AB19606; assay: Growth (OD600) with chelator, Rifampin or both; settings: CAMHB
Procedure: A. baumannii strain AB19606 was grown in CAMHB and challenged with 1.5×MIC compound 4 (Var) or 1.5×MIC Triapine (Tri) with or without 0.75×MIC Rifampin (Rif). Growth was estimated by absorbance at 600 nm (y-axis) at 0 or 24 hours.

[12] = ATCC17978, ATCC 17978, read-out: MIC of Iron Chelators
[13] = ATCC19606, ATCC 19606, read-out: MIC of Iron Chelators
[14] = Escherichia coli, 35718, read-out: MIC of Iron Chelators
[15] = Escherichia coli, ATCC43888, ATCC 43888 (0157:H7), read-out: MIC of Iron Chelators
[16] = ATCC27853, ATCC 27853, read-out: MIC of Iron Chelators
[17] = PAO1, read-out: MIC of Iron Chelators
[18] = ATCC700603, ATCC 700603, read-out: MIC of Iron Chelators
[19] = BAA2146, BAA-2146, read-out: MIC of Iron Chelators
[20] = ATCC17978, ATCC 17978, Table 1, read-out: MIC of Iron Chelators
[21] = ATCC19606, ATCC 19606, Table 1, read-out: MIC of Iron Chelators
[22] = ATCC25923, ATCC 25923, Table 1, read-out: MIC of Iron Chelators
[23] = ATCC 43300 (MRSA), Table 1, read-out: MIC of Iron Chelators
[24] = Escherichia coli, ATCC35218, ATCC 35218, Table 1, read-out: MIC of Iron Chelators
[25] = Escherichia coli, ATCC43888, ATCC 43888 (0157:H7), Table 1, read-out: MIC of Iron Chelators
[26] = ATCC27853, ATCC 27853, Table 1, read-out: MIC of Iron Chelators
[27] = PAO1, Table 1, read-out: MIC of Iron Chelators
[28] = ATCC700603, ATCC 700603, Table 1, read-out: MIC of Iron Chelators
[29] = BAA2146, BAA-2146, Table 1, read-out: MIC of Iron Chelators
[30] = alone: 1.5×MIC chelator or 0.75×MIC Rifampin
[31] = 1.5×MIC chelator in combination with 0.75×MIC Rifampin

`CC(=O)N(O)CCCCCNC(=O)CCC(=O)N(O)CCCCCNC(=O)CCC(=O)N(O)CCCCCN` [DFO, deferoxamine] was tested, and the MIC (Acinetobacter baumannii [1]; [12]) was > 500 µg/mL, the MIC (Acinetobacter baumannii [1]; [13]) was > 500 µg/mL and the MIC (E. coli [2]; [14]) was > 500 µg/mL. For the same molecule, the MIC (E. coli [2]; [15]) was > 500 µg/mL, the MIC (P. aeruginosa [3]; [16]) was > 500 µg/mL and the MIC (P. aeruginosa [3]; [17]) was > 500 µg/mL. For the same molecule, the MIC (K. pneumonia [4]; [18]) was > 500 µg/mL, the MIC (K. pneumonia [4]; [19]) was > 500 µg/mL and the MIC (Acinetobacter baumannii [5]; [20]) was > 500 µg/mL. The MIC (Acinetobacter baumannii [5]; [21]) was > 500 µg/mL, the MIC (S. aureus; [22]) was > 500 µg/mL and the MIC (S. aureus; [23]) was > 500 µg/mL. For the same molecule, the MIC (E. coli [6]; [24]) was > 500 µg/mL, the MIC (E. coli [6]; [25]) was > 500 µg/mL and the MIC (P. aeruginosa [7]; [26]) was > 500 µg/mL. The MIC (P. aeruginosa [7]; [27]) was > 500 µg/mL, the MIC (K. pneumonia [8]; [28]) was > 500 µg/mL and the MIC (K. pneumonia [8]; [29]) was > 500 µg/mL. For the same molecule, the “bacterial growth (OD600 growth curves)” value [9] was “little effect”.

`c1ccc(-c2ccccn2)nc1` [DIP, 2,2-dipyridyl] showed an MIC (Acinetobacter baumannii [1]; [12]) of 32 µg/mL, an MIC (Acinetobacter baumannii [1]; [13]) of 32 µg/mL and an MIC (E. coli [2]; [14]) of 64 µg/mL. The MIC (E. coli [2]; [15]) was 64 µg/mL, the MIC (P. aeruginosa [3]; [16]) was 250 µg/mL and the MIC (P. aeruginosa [3]; [17]) was 250 µg/mL. It also gave an MIC (K. pneumonia [4]; [18]) of 250 µg/mL, an MIC (K. pneumonia [4]; [19]) of 125 µg/mL and an MIC (Acinetobacter baumannii [5]; [20]) of 64 µg/mL. It also gave an MIC (Acinetobacter baumannii [5]; [21]) of 64 µg/mL, an MIC (S. aureus; [22]) of 500 µg/mL and an MIC (S. aureus; [23]) of 250 µg/mL. For the same molecule, the MIC (E. coli [6]; [24]) was 64 µg/mL, the MIC (E. coli [6]; [25]) was 64 µg/mL and the MIC (P. aeruginosa [7]; [26]) was 250 µg/mL. The MIC (P. aeruginosa [7]; [27]) was 250 µg/mL, the MIC (K. pneumonia [8]; [28]) was 500 µg/mL and the MIC (K. pneumonia [8]; [29]) was 250 µg/mL. For the same molecule, the “bacterial growth (OD600 growth curves)” value [9] was “reduced bacterial growth to a significant extent”.

For `CO[C@H]1/C=C/O[C@@]2(C)Oc3c(C)c(O)c4c(O)c(c(/C=N/N5CCN(C)CC5)c(O)c4c3C2=O)NC(=O)/C(C)=C\C=C\[C@H](C)[C@H](O)[C@@H](C)[C@@H](O)[C@@H](C)[C@H](OC(C)=O)[C@@H]1C` [Rifampin], the “reduction of bacteria (absorbance at 600 nm, 24 hours)” value (“reduction of bacteria” for short) (E. coli strain EC35218; [30]) was “did not result in a reduction of bacteria”, the “time until antibiotic-resistant strains develop” value [10] was “less than one day” and the “CFU/mL at 24 hours” value (E. coli EC35218) was “about 1×10^7 CFU/mL”. The “reduction of bacteria” value [11, 30] was “no reduction of bacteria”.

`NC(=S)N/N=C/c1ncccc1N` [Triapine, 3-aminopyridine-2-carboxaldehyde thiosemicarbazone] was tested, and the MIC (Acinetobacter baumannii [5]; AB19606, CAMHB, read-out: MIC) was 32 µg/mL (≈ 164 µM), the MIC (S. aureus; SA43300, CAMHB, read-out: MIC) was 125 µg/mL (≈ 640 µM) and the MIC (E. coli [6]; EC43888, CAMHB) was 125 µg/mL (≈ 640 µM). It also gave an MIC (E. coli [6]; Escherichia coli, EC35218, CAMHB, read-out: MIC) of 125 µg/mL (≈ 640 µM), an MIC (P. aeruginosa [7]; PA27853, CAMHB, read-out: MIC) of 250 µg/mL (≈ 1280 µM) and an MIC (K. pneumonia [8]; KP700603, CAMHB, read-out: MIC) of 250 µg/mL (≈ 1280 µM). For the same molecule, the “reduction of bacteria” value (E. coli strain EC35218; [31]) was “significant reduction in bacteria”, the “reduction of bacteria” value (E. coli strain EC35218; [30]) was “did not result in a reduction of bacteria” and the “reduction of bacteria” value [11, 31] was “significant reduction in bacteria”. The “reduction of bacteria” value [11, 30] was “no reduction of bacteria”.
